Legend:
common carotid artery = assay: Local application via administration catheter in the denuded common carotid artery, dynamic scintigraphy and autoradiography; settings: for course of the locally administered activity at the administration site after blood flow is restored: examination period of 1 hour, dynamic scintigrams, right common carotid artery
Description: b) Local Application of the Tc-99m Complex of NH2-Asp-Gly-Gly-Cys-Gly-Cys-Phe-(D-Trp)-Leu-Asp-Ile-Ile-Trp-OH as well as Tc-99m-pertechnetate in the Common Carotid Artery of White New Zealand Rabbits
In anesthetized white New Zealand rabbits (3.5 kg), the right common carotid artery was opened up. A 2 F balloon catheter (from the Baxter Company) was inserted cranially through a cut, and a vascular area approximately 5 cm long was denuded twice with 0.9% saline after the catheter was inflated. Then, an administration catheter (coronary perfusion/infusion catheter, dispatch 3.0, Baxter Company) was fed to the above-denuded area. […] Then, the catheter was removed, and the blood flow after closure of the common carotid artery dextra was restored using a suture. Dynamic scintigrams were prepared over a period of 1 hour with the aid of a commercial gamma camera. Then, the animals were sacrificed, both carotids were removed, and an autoradiography was prepared.

arteriosclerotic plaque = assay: In vivo and in vitro concentration in WHHL rabbits (gamma camera imaging, autoradiography of the aorta); settings: 2 mCi (1 ml) via an ear vein
Experimental: In Vivo and In Vitro Concentration of the ^99mTc-Complex of […] in WHHL Rabbits 2 mCi (1 ml) of the […]Tc-complex that is produced according to 5a) is administered to an anesthetized WHHL rabbit (Rompun/Ketavet 1:2) via an ear vein. WHHL rabbits have a high LDL level in the blood because of a deficient or defective LDL receptor and therefore create spontaneously arteriosclerotic vascular alterations. During the test period of 5 hours after the administration, static images of various exposure times and of various positions were produced with a gamma camera ([…]). 5 hours after the administration, the rabbit was sacrificed, and both an autoradiography of the aorta and a Sudan III coloring were carried out.

Row | Compound | site of accumulation after being flushed from the vessel wall (common carotid artery; anterior summation scintigram 0-1 hour after local administration (FIG. 1)) | course of the locally administered activity at the administration site after blood flow is restored (common carotid artery) | course of the locally administered activity at the administration site after blood flow is restored (common carotid artery; listed as Tc-99m-pertechnetate) | time at which arteriosclerotic plaque in the area of the aortic arch could be visualized in vivo (arteriosclerotic plaque) [minutes p.i.]
1 | [O]=[99Tc](=[O])(=[O])[O-] [Tc-99m pertechnetate] | accumulates in the salivary glands as well as the thyroid | flushed from the vessel directly after the blood flow was regenerated | flushed from the vessel wall immediately after the blood flow is restored | 
2 | ^99mTc Complex of Asp-Gly-Gly-Cys-Gly-Cys-Phe-(D-Trp)-Leu-Asp-Ile-Ile-Trp |  |  |  | 10

Source: patent publication US20030119719A1, “Use of endothelin conjugates in therapy, new endothelin conjugates, agents that contain the latter, and process for their production” (priority 1996, published 2003)
